Assay results taken from patent US6660742B2, “Compositions and methods of the use thereof achiral analogues of CC-1065 and the duocarmycins” (priority 2000, dated 2003).
Where “and” joins values, the source holds several entries; their conditions need not be identical. Equal values may be shown once. Read-outs that look alike come from different tables or passages of the source.

Experiments:
[1] = tested on: UACC-62; assay: NCI screen, UACC-62 (Melanoma)
Experimental: (§1) The compounds of this invention were also tested against the panel of 60 human cancer cell lines at the National Cancer Institute, Bethesda, Md. […] The cytrotoxicity studies were conducted using a 48 hour exposure, and measuring the optical density of sulforhodamide B-derived color.

[2] = tested on: K-562; assay: NCI screen, K-562 (Leukemia)
Experimental: as §1

[3] = tested on: SK-MEL-5; assay: NCI screen, SK-MEL-5 (Melanoma)
Experimental: as §1

[4] = tested on: SK-MEL-28; assay: NCI screen, SK-MEL-28 (Melanoma)
Experimental: as §1

[5] = tested on: MDA-N; assay: NCI screen, MDA-N (Breast Cancer)
Experimental: as §1

[6] = tested on: EKVX; assay: NCI screen, EKVX (Non-Small Cell Lung Cancer)
Experimental: as §1

[7] = tested on: MDA-MB-435; assay: NCI screen, MDA-MB-435 (Breast Cancer); assay type: cell-based, human
Experimental: as §1

[8] = tested on: CCRF-CEM; assay: NCI screen, CCRF-CEM (Leukemia)
Experimental: as §1

[9] = tested on: SK-OV-3; assay: NCI screen, SK-OV-3 (Ovarian Cancer)
Experimental: as §1

[10] = tested on: HOP-92
[11] = tested on: RPMI-8226
[12] = tested on: CAKI-1; assay: NCI screen, CAKI-1 (Renal Cancer)
Experimental: as §1

[13] = tested on: UO-31; assay: NCI screen, UO-31 (Renal Cancer)
Experimental: as §1

[14] = tested on: PC-3; assay: NCI screen, PC-3 (Prostrate Cancer)
Experimental: as §1

[15] = tested on: panel of 60 human cancer cell lines; assay: NCI in-vitro cytotoxicity screen, whole panel; assay type: cell-based
[16] = tested on: NCI-H23; assay: NCI screen, NCI-H23 (Non-Small Cell Lung Cancer)
Experimental: as §1

[17] = tested on: SN12C; assay: NCI screen, SN12C (Renal Cancer)
Experimental: as §1

[18] = tested on: SNB-19; assay: NCI screen, SNB-19 (CNS Cancer)
Experimental: as §1

[19] = tested on: SK-MEL-2; assay: NCI screen, SK-MEL-2 (Melanoma)
Experimental: as §1

[20] = tested on: HT29; assay: NCI screen, HT29 (Colon Cancer)
Experimental: as §1

[21] = tested on: NCI-H322M
[22] = tested on: ACHN; assay type: cell-based, human
[23] = tested on: HS 578T; assay: NCI screen, HS 578T (Breast Cancer)
Experimental: The compounds of this invention were also tested against the panel of 60 human cancer cell lines at the National Cancer Institute, Bethesda, Md. (44). The cytrotoxicity studies were conducted using a 48 hour exposure, and measuring the optical density of sulforhodamide B-derived color.

O=C(Nc1cc(O)ccc1CCCl)c1cc2cc(NC(=O)c3cc4ccccc4o3)ccc2[nH]1 [Compound 1, 4-(2-Chloroethyl)-3-[5-(5-benzofuran-2-carboxamido)indole-2-carboxamido]phenol]
GI50 [1]: 1970 nM
TGI [1]: 3.49E−06 Molar
Percent Growth ([1]; Log10 Concentration −4.0): −99%
Percent Growth ([1]; Log10 Concentration −7.0): 104%
Percent Growth ([1]; Log10 Concentration −8.0): 100%
GI50 [2]: 2880 nM
TGI [2]: 9.59E−06 Molar
Percent Growth ([2]; Log10 Concentration −4.0): −5%
GI50 [3]: 1730 nM
TGI [3]: 3.34E−06 Molar
Percent Growth ([3]; Log10 Concentration −4.0): −97%
Percent Growth ([3]; Log10 Concentration −6.0): 92%
Percent Growth ([3]; Log10 Concentration −7.0): 104%
GI50 [4]: 2400 nM
TGI [4]: 6.10E−06 Molar
Percent Growth ([4]; Log10 Concentration −4.0): −98%
Percent Growth ([4]; Log10 Concentration −6.0): 97%
Percent Growth ([4]; Log10 Concentration −8.0): 103%
Percent Growth [5]: −35%
GI50 ([5]; MDA-N): 2280 nM
TGI ([5]; MDA-N): 5.47E−06 Molar
Percent Growth ([5]; MDA-N, Log10 Concentration −4.0): −87%
Percent Growth ([5]; MDA-N, Log10 Concentration −6.0): 97%
Percent Growth ([5]; MDA-N, Log10 Concentration −7.0): 103%
Percent Growth ([5]; MDA-N, Log10 Concentration −8.0): 100%
GI50 [6]: 1780 nM
TGI [6]: 4.41E−06 Molar
Percent Growth ([6]; Log10 Concentration −4.0): −80%
Percent Growth ([6]; Log10 Concentration −7.0): 96%
GI50 [7]: 1890 nM
TGI [7]: 3.75E−06 Molar
Percent Growth ([7]; Log10 Concentration −4.0): −94%
Percent Growth ([7]; Log10 Concentration −6.0): 96%
GI50 [8]: 1260 nM
TGI [8]: 5.28E−06 Molar
Percent Growth ([8]; Log10 Concentration −4.0): −13%
GI50 [9]: 2930 nM
TGI [9]: 7.64E−06 Molar
Percent Growth ([9]; Log10 Concentration −4.0): −99%
Percent Growth ([9]; Log10 Concentration −7.0): 102%
GI50 [10]: 2620 nM
TGI [10]: 5.53E−06 Molar
Percent Growth ([10]; Log10 Concentration −4.0): −92%
Percent Growth ([10]; Log10 Concentration −8.0): 94%
CC50 [11]: > 100000 nM
GI50 [11]: 1860 nM
Percent Growth [11]: −41%
TGI [11]: 5.59E−06 Molar
Percent Growth [12]: 87% and 82%
GI50 ([12]; CAKI-1): 2300 nM
TGI ([12]; CAKI-1): 7.19E−06 Molar
Percent Growth ([12]; CAKI-1, Log10 Concentration −4.0): −95%
Percent Growth ([12]; CAKI-1, Log10 Concentration −5.0): −14%
Percent Growth ([12]; CAKI-1, Log10 Concentration −8.0): 95%
Percent Growth [13]: 123%
GI50 ([13]; UO-31): 3000 nM
TGI ([13]; UO-31): 6.38E−06 Molar
Percent Growth ([13]; UO-31, Log10 Concentration −4.0): −97%
Percent Growth ([13]; UO-31, Log10 Concentration −5.0): −30%
Percent Growth ([13]; UO-31, Log10 Concentration −7.0): 102%
Percent Growth ([13]; UO-31, Log10 Concentration −8.0): 105%
GI50 [14]: 969 nM
TGI [14]: 3.99E−06 Molar
Percent Growth ([14]; Log10 Concentration −4.0): −99%
Percent Growth ([14]; Log10 Concentration −7.0): 98%
Percent Growth ([14]; Log10 Concentration −8.0): 96%
range of activity ([15]; 48 hour exposure): micromolar range
activity against leukemia cells ([15]; leukemia cells): none of these compounds showed much activity
activity against melanoma cells ([15]; melanoma cells): active
activity against solid tumors cells ([15]; solid tumors cells): strong activity
GI50 [16]: 1670 nM
TGI [16]: 3.38E−06 Molar
Percent Growth ([16]; Log10 Concentration −4.0): −61%
GI50 [17]: 3100 nM
TGI [17]: 9.41E−06 Molar
Percent Growth ([17]; Log10 Concentration −4.0): −77%
Percent Growth ([17]; Log10 Concentration −5.0): −3%
Percent Growth ([17]; Log10 Concentration −7.0): 102%
GI50 [18]: 3530 nM
TGI [18]: 1.38E−05 Molar
Percent Growth ([18]; Log10 Concentration −4.0): −75%
GI50 [19]: 1320 nM
TGI [19]: 2.67E−06 Molar
Percent Growth ([19]; Log10 Concentration −4.0): −91%
Percent Growth ([19]; Log10 Concentration −7.0): 101%
GI50 [20]: 2290 nM
TGI [20]: 1.15E−05 Molar
Percent Growth ([20]; Log10 Concentration −4.0): −51%
Percent Growth ([20]; Log10 Concentration −8.0): 96%
GI50 [21]: 2830 nM
Percent Growth [21]: 93%
TGI [21]: 9.60E−06 Molar
GI50 [22]: 1530 nM
TGI [22]: 5.55E−06 Molar
Percent Growth [23]: 89% and 77%
GI50 ([23]; HS 578T): 11800 nM
TGI ([23]; HS 578T): 3.96E−05 Molar
Percent Growth ([23]; HS 578T, Log10 Concentration −4.0): −38%
Percent Growth ([23]; HS 578T, Log10 Concentration −5.0): 57%
Percent Growth ([23]; HS 578T, Log10 Concentration −7.0): 92%
